Experiments:
Format in all cases: in vivo
Set-up in all cases: scale not given here
[1] = tested on: Setaria viridis (L.) Beauv.; assay: Herbicidal effect by upland foliage treatment; conditions: active ingredient 1000 g/ha, examined at 14th day from treatment
Procedure: (§1) A sand was filled in a plastic pot of 80 cm^2. Seeds of Echinochloa crus-galli (L.) Beauv. var. crus-galli and Setaria viridis (L.) Beauv. were sowed. Breeding was made in a greenhouse for 2 weeks. Wettable powders produced in accordance with the Formulation 1 were diluted with water and sprayed on the whole foliage of plants from above the plants using a small sprayer in an amount of 1,000 liters per 1 hectare so that the amount of each active ingredient became 1,000 g per 1 hectare. Then, breeding was made in the greenhouse, and the herbicidal effect of each wettable powder was examined at the 14th day from the treatment in accordance with the standard shown in Table 21.

[2] = tested on: Echinochloa crus-galli (L.) Beauv. var. crus-galli; assay: Herbicidal effect by upland foliage treatment; conditions: active ingredient 1000 g/ha, examined at 14th day from treatment
Procedure: as §1

[3] = tested on: Monochoria vaginalis (Murm. f.) Presl var. plantaginea (Roxb.) Solms-Laub.; assay: Herbicidal effect by paddy field soil treatment; conditions: wettable powder, active ingredient 1000 g/ha, examined at the 21st day from the treatment
Procedure, shortened: (§2)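 Seeds sown in puddled paddy soil under 3 cm of water; the next day wettable powders diluted in water were dropped onto the water surface at 1,000 g active ingredient/ha. Plants grown in a greenhouse, with herbicidal effect scored on day 21 against a rating standard.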

[4] = tested on: Echinochloa oryzicola Vasing; assay: Herbicidal effect by paddy field soil treatment; conditions: wettable powder, active ingredient 1000 g/ha, examined at the 21st day from the treatment
Procedure, shortened: as §2

[5] = tested on: Setaria viridis (L.) Beauv.; assay: Herbicidal effect by upland field soil treatment; conditions: active ingredient 1000 g/ha, examined at 21st day from treatment
Text: (§3) An upland field soil was filled in a plastic pot of 80 cm^2. Seeds of Echinochloa crus-galli (L.) Beauv. var. crusgalli and Setaria viridis (L.) Beauv. were sowed, followed by covering with the same soil. […] Then, breeding was made in a greenhouse, and the herbicidal effect of each wettable powder was examined at the 21st day from the treatment in accordance with the standard shown in Table 21.

[6] = tested on: Echinochloa crus-galli (L.) Beauv. var. crusgalli; assay: Herbicidal effect by upland field soil treatment; conditions: active ingredient 1000 g/ha, examined at 21st day from treatment
Text: as §3

CC(C)Cn1nc(C(F)(F)F)c(CS(=O)(=O)C2=NOC(C)(C)C2)c1Cl [3-0083]
herbicidal effect (index per standard of Table 21), Setaria viridis (L.) Beauv. [1]: 4 | herbicidal effect (index per standard of Table 21), Echinochloa curs-galli (L.) Beauv. Var. crus-galli [2]: 4 | Herbicidal effect index, Monochoria vaginalis (Burm. F.) Presl var. plantaginea (Roxb.) Solms-Laub. [3]: 5 | Herbicidal effect index, Echinochloa oryzicola Vasing [4]: 5 | herbicidal effect (index per standard of Table 21), Setaria viridis (L.) Beauv. [5]: 5 | herbicidal effect (index per standard of Table 21), Echinochloa curs-galli (L.) Beauv. Var. crus-galli [6]: 5

CC(C)Cn1nc(Cl)c(CS(=O)(=O)C2=NOC(C)(C)C2)c1C(F)(F)F [3-0084]
herbicidal effect (index per standard of Table 21), Setaria viridis (L.) Beauv. [1]: 4 | herbicidal effect (index per standard of Table 21), Echinochloa curs-galli (L.) Beauv. Var. crus-galli [2]: 4 | Herbicidal effect index, Monochoria vaginalis (Burm. F.) Presl var. plantaginea (Roxb.) Solms-Laub. [3]: 5 | Herbicidal effect index, Echinochloa oryzicola Vasing [4]: 5 | herbicidal effect (index per standard of Table 21), Setaria viridis (L.) Beauv. [5]: 5 | herbicidal effect (index per standard of Table 21), Echinochloa curs-galli (L.) Beauv. Var. crus-galli [6]: 5

CCCCn1nc(C(F)(F)F)c(CS(=O)(=O)C2=NOC(C)(C)C2)c1Cl [3-0085]
herbicidal effect (index per standard of Table 21), Setaria viridis (L.) Beauv. [1]: 4 | herbicidal effect (index per standard of Table 21), Echinochloa curs-galli (L.) Beauv. Var. crus-galli [2]: 4 | Herbicidal effect index, Monochoria vaginalis (Burm. F.) Presl var. plantaginea (Roxb.) Solms-Laub. [3]: 5 | Herbicidal effect index, Echinochloa oryzicola Vasing [4]: 5 | herbicidal effect (index per standard of Table 21), Setaria viridis (L.) Beauv. [5]: 5 | herbicidal effect (index per standard of Table 21), Echinochloa curs-galli (L.) Beauv. Var. crus-galli [6]: 5

CCCCn1nc(Cl)c(CS(=O)(=O)C2=NOC(C)(C)C2)c1C(F)(F)F [3-0086]
herbicidal effect (index per standard of Table 21), Setaria viridis (L.) Beauv. [1]: 4 | herbicidal effect (index per standard of Table 21), Echinochloa curs-galli (L.) Beauv. Var. crus-galli [2]: 4 | Herbicidal effect index, Monochoria vaginalis (Burm. F.) Presl var. plantaginea (Roxb.) Solms-Laub. [3]: 5 | Herbicidal effect index, Echinochloa oryzicola Vasing [4]: 5 | herbicidal effect (index per standard of Table 21), Setaria viridis (L.) Beauv. [5]: 5 | herbicidal effect (index per standard of Table 21), Echinochloa curs-galli (L.) Beauv. Var. crus-galli [6]: 5

CC1(C)CC(S(=O)(=O)Cc2c(Cl)nn(CC(F)F)c2C(F)(F)F)=NO1 [3-0115]
herbicidal effect (index per standard of Table 21), Setaria viridis (L.) Beauv. [1]: 4 | herbicidal effect (index per standard of Table 21), Echinochloa curs-galli (L.) Beauv. Var. crus-galli [2]: 5 | Herbicidal effect index, Monochoria vaginalis (Burm. F.) Presl var. plantaginea (Roxb.) Solms-Laub. [3]: 5 | Herbicidal effect index, Echinochloa oryzicola Vasing [4]: 5 | herbicidal effect (index per standard of Table 21), Setaria viridis (L.) Beauv. [5]: 5 | herbicidal effect (index per standard of Table 21), Echinochloa curs-galli (L.) Beauv. Var. crus-galli [6]: 5

COCn1nc(C(F)(F)F)c(CS(=O)(=O)C2=NOC(C)(C)C2)c1Cl [3-0118]
herbicidal effect (index per standard of Table 21), Setaria viridis (L.) Beauv. [1]: 4 | herbicidal effect (index per standard of Table 21), Echinochloa curs-galli (L.) Beauv. Var. crus-galli [2]: 5 | Herbicidal effect index, Monochoria vaginalis (Burm. F.) Presl var. plantaginea (Roxb.) Solms-Laub. [3]: 5 | Herbicidal effect index, Echinochloa oryzicola Vasing [4]: 5 | herbicidal effect (index per standard of Table 21), Setaria viridis (L.) Beauv. [5]: 5 | herbicidal effect (index per standard of Table 21), Echinochloa curs-galli (L.) Beauv. Var. crus-galli [6]: 5

COCn1nc(Cl)c(CS(=O)(=O)C2=NOC(C)(C)C2)c1C(F)(F)F [3-0119]
herbicidal effect (index per standard of Table 21), Setaria viridis (L.) Beauv. [1]: 4 | herbicidal effect (index per standard of Table 21), Echinochloa curs-galli (L.) Beauv. Var. crus-galli [2]: 5 | Herbicidal effect index, Monochoria vaginalis (Burm. F.) Presl var. plantaginea (Roxb.) Solms-Laub. [3]: 5 | Herbicidal effect index, Echinochloa oryzicola Vasing [4]: 5 | herbicidal effect (index per standard of Table 21), Setaria viridis (L.) Beauv. [5]: 5 | herbicidal effect (index per standard of Table 21), Echinochloa curs-galli (L.) Beauv. Var. crus-galli [6]: 5

CCOCn1nc(C(F)(F)F)c(CS(=O)(=O)C2=NOC(C)(C)C2)c1Cl [3-0120]
herbicidal effect (index per standard of Table 21), Setaria viridis (L.) Beauv. [1]: 5 | herbicidal effect (index per standard of Table 21), Echinochloa curs-galli (L.) Beauv. Var. crus-galli [2]: 5 | Herbicidal effect index, Monochoria vaginalis (Burm. F.) Presl var. plantaginea (Roxb.) Solms-Laub. [3]: 5 | Herbicidal effect index, Echinochloa oryzicola Vasing [4]: 5 | herbicidal effect (index per standard of Table 21), Setaria viridis (L.) Beauv. [5]: 5 | herbicidal effect (index per standard of Table 21), Echinochloa curs-galli (L.) Beauv. Var. crus-galli [6]: 5

CC(=O)CCn1nc(C(F)(F)F)c(CS(=O)(=O)C2=NOC(C)(C)C2)c1Cl [3-0144]
herbicidal effect (index per standard of Table 21), Setaria viridis (L.) Beauv. [1]: 5 | herbicidal effect (index per standard of Table 21), Echinochloa curs-galli (L.) Beauv. Var. crus-galli [2]: 5 | Herbicidal effect index, Monochoria vaginalis (Burm. F.) Presl var. plantaginea (Roxb.) Solms-Laub. [3]: 5 | Herbicidal effect index, Echinochloa oryzicola Vasing [4]: 5 | herbicidal effect (index per standard of Table 21), Setaria viridis (L.) Beauv. [5]: 5 | herbicidal effect (index per standard of Table 21), Echinochloa curs-galli (L.) Beauv. Var. crus-galli [6]: 5

Cc1nsc(Cl)c1CS(=O)(=O)C1=NOC(C)(C)C1 [4-0002, [(5-chloro-3-methyl-isothiazol-4-yl)-methylsulfonyl]-5,5-dimethyl-2-isoxazoline]
herbicidal effect (index per standard of Table 21), Setaria viridis (L.) Beauv. [1]: 4 | herbicidal effect (index per standard of Table 21), Echinochloa curs-galli (L.) Beauv. Var. crus-galli [2]: 5 | Herbicidal effect index, Monochoria vaginalis (Burm. F.) Presl var. plantaginea (Roxb.) Solms-Laub. [3]: 5 | Herbicidal effect index, Echinochloa oryzicola Vasing [4]: 5 | herbicidal effect (index per standard of Table 21), Setaria viridis (L.) Beauv. [5]: 5 | herbicidal effect (index per standard of Table 21), Echinochloa curs-galli (L.) Beauv. Var. crus-galli [6]: 5

Cc1noc(C)c1CS(=O)(=O)C1=NOC(C)(C)C1 [4-0005]
herbicidal effect (index per standard of Table 21), Setaria viridis (L.) Beauv. [1]: 4 | herbicidal effect (index per standard of Table 21), Echinochloa curs-galli (L.) Beauv. Var. crus-galli [2]: 5 | Herbicidal effect index, Monochoria vaginalis (Burm. F.) Presl var. plantaginea (Roxb.) Solms-Laub. [3]: 5 | Herbicidal effect index, Echinochloa oryzicola Vasing [4]: 5 | herbicidal effect (index per standard of Table 21), Setaria viridis (L.) Beauv. [5]: 5 | herbicidal effect (index per standard of Table 21), Echinochloa curs-galli (L.) Beauv. Var. crus-galli [6]: 5

Cc1nn(C)c(CS(=O)(=O)C2=NOC(C)(C)C2)c1Cl [5-0001]
herbicidal effect (index per standard of Table 21), Setaria viridis (L.) Beauv. [1]: 4 | herbicidal effect (index per standard of Table 21), Echinochloa curs-galli (L.) Beauv. Var. crus-galli [2]: 5 | Herbicidal effect index, Monochoria vaginalis (Burm. F.) Presl var. plantaginea (Roxb.) Solms-Laub. [3]: 5 | Herbicidal effect index, Echinochloa oryzicola Vasing [4]: 5 | herbicidal effect (index per standard of Table 21), Setaria viridis (L.) Beauv. [5]: 5 | herbicidal effect (index per standard of Table 21), Echinochloa curs-galli (L.) Beauv. Var. crus-galli [6]: 5

CCc1nn(C)c(CS(=O)(=O)C2=NOC(C)(C)C2)c1Cl [5-0002]
herbicidal effect (index per standard of Table 21), Setaria viridis (L.) Beauv. [1]: 5 | herbicidal effect (index per standard of Table 21), Echinochloa curs-galli (L.) Beauv. Var. crus-galli [2]: 5 | Herbicidal effect index, Monochoria vaginalis (Burm. F.) Presl var. plantaginea (Roxb.) Solms-Laub. [3]: 5 | Herbicidal effect index, Echinochloa oryzicola Vasing [4]: 5 | herbicidal effect (index per standard of Table 21), Setaria viridis (L.) Beauv. [5]: 5 | herbicidal effect (index per standard of Table 21), Echinochloa curs-galli (L.) Beauv. Var. crus-galli [6]: 5

Cn1ncc(C(F)(F)F)c1CS(=O)(=O)C1=NOC(C)(C)C1 [5-0003]
herbicidal effect (index per standard of Table 21), Setaria viridis (L.) Beauv. [1]: 4 | herbicidal effect (index per standard of Table 21), Echinochloa curs-galli (L.) Beauv. Var. crus-galli [2]: 5 | Herbicidal effect index, Monochoria vaginalis (Burm. F.) Presl var. plantaginea (Roxb.) Solms-Laub. [3]: 5 | Herbicidal effect index, Echinochloa oryzicola Vasing [4]: 5 | herbicidal effect (index per standard of Table 21), Setaria viridis (L.) Beauv. [5]: 5 | herbicidal effect (index per standard of Table 21), Echinochloa curs-galli (L.) Beauv. Var. crus-galli [6]: 5

CC1(C)CC(S(=O)(=O)Cc2c(C(F)(F)F)cnn2-c2ccccc2)=NO1 [5-0007]
herbicidal effect (index per standard of Table 21), Setaria viridis (L.) Beauv. [1]: 5 | herbicidal effect (index per standard of Table 21), Echinochloa curs-galli (L.) Beauv. Var. crus-galli [2]: 5 | Herbicidal effect index, Monochoria vaginalis (Burm. F.) Presl var. plantaginea (Roxb.) Solms-Laub. [3]: 5 | Herbicidal effect index, Echinochloa oryzicola Vasing [4]: 5 | herbicidal effect (index per standard of Table 21), Setaria viridis (L.) Beauv. [5]: 5 | herbicidal effect (index per standard of Table 21), Echinochloa curs-galli (L.) Beauv. Var. crus-galli [6]: 5

Cc1cc(CS(=O)(=O)C2=NOC(C)(C)C2)no1 [6-0004]
herbicidal effect (index per standard of Table 21), Setaria viridis (L.) Beauv. [1]: 4 | herbicidal effect (index per standard of Table 21), Echinochloa curs-galli (L.) Beauv. Var. crus-galli [2]: 5 | Herbicidal effect index, Monochoria vaginalis (Burm. F.) Presl var. plantaginea (Roxb.) Solms-Laub. [3]: 5 | Herbicidal effect index, Echinochloa oryzicola Vasing [4]: 5 | herbicidal effect (index per standard of Table 21), Setaria viridis (L.) Beauv. [5]: 5 | herbicidal effect (index per standard of Table 21), Echinochloa curs-galli (L.) Beauv. Var. crus-galli [6]: 5

Cc1cc[n+]([O-])c(Cl)c1CS(=O)(=O)C1=NOC(C)(C)C1 [7-0008]
herbicidal effect (index per standard of Table 21), Setaria viridis (L.) Beauv. [1]: 5 | herbicidal effect (index per standard of Table 21), Echinochloa curs-galli (L.) Beauv. Var. crus-galli [2]: 5 | Herbicidal effect index, Monochoria vaginalis (Burm. F.) Presl var. plantaginea (Roxb.) Solms-Laub. [3]: 5 | Herbicidal effect index, Echinochloa oryzicola Vasing [4]: 5 | herbicidal effect (index per standard of Table 21), Setaria viridis (L.) Beauv. [5]: 5 | herbicidal effect (index per standard of Table 21), Echinochloa curs-galli (L.) Beauv. Var. crus-galli [6]: 5

Reference: US7238689B2, “Isoxazoline derivative and herbicide comprising the same as active ingredient” (Ihara Chemical Industry Co., Ltd., priority 2001, dated 2007)
